According to patent US20030114375A1, “Method for treating cystic fibrosis” (The Government of the USA, Dept of Health and Human …, priority 1994, published 2003):
Entries after “also recorded” stand apart in the source; their conditions may differ. Read-outs that look alike come from different tables or passages of the source.

Key:
A1-adenosine receptor = biological target: T1, A1-adenosine receptor (Rattus norvegicus, UniProt P25099); experiment: Inhibition of [3H]N6-phenylisopropyladenosine binding to A1 receptors
T1 construct: Rat cerebral cortical membranes and striatal membranes were prepared; from tissue; host or cells: rat cerebral cortex membranes
T1 sequence (P25099 1-326): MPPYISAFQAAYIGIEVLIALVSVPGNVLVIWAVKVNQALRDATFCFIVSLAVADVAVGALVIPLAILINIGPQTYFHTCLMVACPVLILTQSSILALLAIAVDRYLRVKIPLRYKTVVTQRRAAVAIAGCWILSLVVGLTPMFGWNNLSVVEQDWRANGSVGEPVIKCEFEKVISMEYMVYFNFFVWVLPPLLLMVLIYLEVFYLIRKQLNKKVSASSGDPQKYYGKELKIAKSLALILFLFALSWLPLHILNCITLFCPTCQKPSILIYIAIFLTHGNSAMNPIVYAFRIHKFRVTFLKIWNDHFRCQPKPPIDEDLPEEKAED
Description: (§1) Solid samples of the adenosine derivatives were dissolved in dimethyl sulfoxide (DMSO) and stored in the art at. −20° C. The stock solutions were diluted with DMSO to a concentration of ≦0.1 mM prior to addition to the aqueous medium. The final concentration of DMSO in the assay medium was generally 2%.
Inhibition of binding of 1 nM [^3H]N^6-phenylisopropyladenosine (Dupont NEN, Boston, Mass.) to A1 receptors in rat cerebral cortex membranes was measured as described in Schwabe et al., Naunyn-Schmiedeberg's Arch. […] Membranes (^˜100 μg protein per tube) were incubated for 1.5 hours at 37° C. in a total volume of 0.5 ml of 50 mM tris hydrochloride at pH 7.4. Test drugs were dissolved in DMSO and added in 10 μl aliquots, resulting in a final DMSO concentration of 2%. Bound and free radioligand were separated by addition of 3 ml of a buffer containing 50 mM tris hydrochloride, at pH 7.4 at 5° C., followed by vacuum filtration using a Brandel Cell Harvester (Brandel, Gaithersburg, Md.) and a Whatman GF/B glass fiber filter with additional washes totaling 9 ml of buffer. Non-specific binding was determined with 10 μM 2-chloroadenosine.
(§2) At least six different concentrations spanning three orders of magnitude, adjusted appropriately for the IC50 of each compound, were used.

CFPAC cells [1] = details: U.S. Pat. No. 5,366,977 / Eidelman et al.; cited from earlier work
CFPAC cells [2] = experiment: [36Cl]- efflux from CFPAC cells; details: for Efflux rate as compared to control (FIGS. 9-12): read from the graphs; for % control: chloride efflux at maximum impact relative to control: at Conc. max.; for % control: chloride efflux at minimum detection relative to control: at threshold concentration
A2a-adenosine receptor = biological target: T2, A2a-adenosine receptor (Rattus norvegicus, UniProt P30543); experiment: Inhibition of [3H]CGS 21680 binding to A2a receptors; details: for Ki: rat striatal membranes, 5 nM [3H]CGS 21680, read-out: Ki, μM(A2)
T2 construct: Rat cerebral cortical membranes and striatal membranes were prepared; from tissue; host or cells: rat striatal membranes
Description: as §1
Membranes (^˜80 μg protein per tube) were incubated for one hour at 25° C. in a total volume of 0.5 ml of a buffer solution consisting of […] tris hydrochloride and 10 mM MgCl2 at pH 7.4. Test drugs were dissolved in DMSO and added in 10 μl aliquots, resulting in a final DMSO concentration of 2%. Non-specific binding was defined using 20 μM 2-chloroadenosine. Filtration was carried out using a Brandel Cell Harvester, as above, using the tris.HCl/MgCl2 buffer recited hereinabove as the washing buffer.
as §2

[3] = tested on: bovine chromaffin granules; experiment: Chromaffin granule aggregation assay; assay type: biochemical; details: for Aggregation of chromaffin granules: 1 mM CaCl2, 20 μg/ml polypeptide
Description: Chromaffin granule aggregation assay: Adrenal glands were obtained from a local abattoir and transported to the laboratory on ice within 2 hours of slaughter. Tissue was processed as described in Brocklehurst et al. in Polypeptide Hormones: A Practical Approach (Oxford Univ. Press, K. Siddle and J. Hutton, eds., 1990) at pp. 237-255. Chromaffin granules were purified on a step gradient of metrizamide using standard procedures. After resuspension, the granule aggregation assay was performed as described (Brocklehurst et al., supra), and the synexin activity was assessed from the initial rate of optical density increase at 540 nm. Briefly, the assay was carried out at room temperature in a 1 ml quartz cuvette containing the chromaffin granule suspension in 0.3 mol/l sucrose, 40 mmol/l histidine buffer, pH 6.0, synexin and variable amounts of calcium chloride.

Iα polypeptide = biological target: T3, Iα polypeptide (Homo sapiens, UniProt P13569); experiment: Phosphatidylserine liposome aggregation driven by Iα polypeptide; assay type: biochemical; details: 0.5 μg/ml (0.18 μM) Iα; 2-thio-CPX up to 1 μM, IBMX up to 15 μM
T3 construct: made in house; host or cells: chemical solid-phase synthesis (Yale University)
Description: Liposome aggregation assay: Phosphatidylserine (“PS”, obtained from Avanti) was dissolved in chloroform, and small unilamellar liposomes were prepared by the extrusion process known in the art. A Lipex machine was used to extrude the PS in a buffer consisting of 10 mM Na-HEPES, pH 7.2 and 1 mM EDTA. The liposomes were diluted to a final optical density at 540 nm of 0.01 and incubated with different concentrations of the different polypeptides and/or chloride ion efflux-activating compounds.

[4] = rat cerebral cortex membranes, 1 nM [3H]PIA, read-out: Ki, μM(A1)

T2 sequence (P30543 whole entry): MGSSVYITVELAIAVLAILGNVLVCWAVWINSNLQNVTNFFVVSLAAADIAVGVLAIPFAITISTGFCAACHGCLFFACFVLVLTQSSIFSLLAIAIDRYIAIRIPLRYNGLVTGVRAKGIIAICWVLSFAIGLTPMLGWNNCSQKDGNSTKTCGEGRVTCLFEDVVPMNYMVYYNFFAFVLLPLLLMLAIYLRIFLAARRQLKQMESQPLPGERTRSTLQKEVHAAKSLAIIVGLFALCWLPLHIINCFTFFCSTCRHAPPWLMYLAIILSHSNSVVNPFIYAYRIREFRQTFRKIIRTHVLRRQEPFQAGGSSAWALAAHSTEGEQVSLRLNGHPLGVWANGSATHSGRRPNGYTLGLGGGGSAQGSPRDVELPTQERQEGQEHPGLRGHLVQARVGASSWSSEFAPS

| Compound | Ki (A1-adenosine receptor; [4]) | Conc. max. (nM): concentration at maximum impact upon chloride efflux (CFPAC cells [2]) | Ki (A2a-adenosine receptor) | further results |
| --- | --- | --- | --- | --- |
| Cn1c(=O)c2[nH]c(C3CCCC3)nc2n(C)c1=O [Compound 4, 1,3-dimethyl-8-cyclopentylxanthine, reference compound] | 0.011 µM | >>10^4 nM |  | Affinity for A1 receptor (A1-adenosine receptor): highest A1 affinity; Activation of chloride efflux from CF cells (words, prior disclosure) (CFPAC cells [1]): ineffective |
| Cn1c(=O)c2c(nc(C3CCCCC3)n2CC2CC2)n(C)c1=O [Compound 16] | 8.23 ± 1.62 µM | >>10^4 nM | 4.53 ± 1.37 µM |  |
| Cn1c(=O)c2c(nc(CC3CCCCC3)n2C)n(C)c1=O [Compound 22, 8-cyclohexylmethyl caffeine] | 3.71 ± 0.36 µM | >>10^4 nM | 5.46 ± 0.47 µM | Efflux rate as compared to control (FIGS. 9-12) (CFPAC cells [2]): 200% |
| CCCn1c(=O)c2[nH]c(-c3ccc(OCC(=O)NCCN)cc3)nc2n(CCC)c1=O [Compound 26, reference compound] |  | >>10^4 nM |  |  |
| Cn1c(=O)c2c(nc(C3CCCCC3)n2C)n(C)c1=O [Compound 14, 8-cyclohexyl caffeine] |  |  |  | Chloride efflux stimulation (summary words) (CFPAC cells [2]): stimulate chloride efflux at μM or lesser concentrations; also recorded: substantial efflux activity at low concentration ranges; thresh (nM): minimum concentration required to detect an effect upon chloride efflux (CFPAC cells [2]): 3 nM |
| Cn1c(=O)c2[nH]c(CC3CCCCC3)nc2n(C)c1=O [Compound 21] | 0.61 ± 0.076 µM | >>10^4 nM | 5.47 ± 0.86 µM | melting point: 236 to 238 °C |
| CCn1cnc2c(NC3CCCC3)ncnc21 [Compound 27, 9-ethyl-6-cyclopenyladenine, reference compound] | 0.44 µM | >>10^4 nM | 17 µM |  |
| CCCn1c(=O)c2[nH]c(C3CCCCC3)nc2n(CCC)c1=O [Compound 18] |  | >>10^4 nM |  |  |
| CFTR polypeptide, amino acid positions 477 to 508, NH2-PSEGKIKHSGRISFCSQFSWIMPGTIKENEEF-COOH [Iα] |  |  |  | Aggregation of chromaffin granules [3]: drive aggregation; k1/2,app of chromaffin granule aggregation ([3]; 1 mM CaCl2, pH 6.0): 22.2 µg/mL; EC50 ([3]; 1 mM CaCl2, pH 6.0, read-out: k1/2,app of chromaffin granule aggregation): 6.3 µM |
| Io: CFTR polypeptide, positions 500 to 530, NH2-GTIKENEEFGVSYDEYRYRSVIKACQLEEDIS-COOH |  |  |  | Aggregation of chromaffin granules [3]: inactive |
| CCCn1c(=O)c2[nH]c(C3CCC(F)C3)nc2n(CCC)c1=O (centres unmarked) [Compound 9] | 0.042 µM | >>300 nM |  |  |
| Cn1c(=O)c2c(nc(C=Cc3cccc(Cl)c3)n2C)n(C)c1=O [Compound 25, reference compound] |  | 30 nM |  | Chloride efflux stimulation (summary words) (CFPAC cells [2]): stimulate chloride efflux at μM or lesser concentrations; thresh (nM): minimum concentration required to detect an effect upon chloride efflux (CFPAC cells [2]): 30 nM |
| Cn1c(=O)c2c(ncn2C)n(C)c1=O [Compound 2, 1,3,7-trimethylxanthine, reference compound] |  | 10 nM |  | thresh (nM): minimum concentration required to detect an effect upon chloride efflux (CFPAC cells [2]): 1 nM |
| CCn1c(C2CCCCC2)nc2c1c(=O)n(C)c(=O)n2C [Compound 15] | 6.66 ± 0.99 µM | >>10^4 nM | 3.23 ± 0.36 µM |  |
| Cn1c(=O)c2c(nc(C3CCCCCC3)n2C)n(C)c1=O [Compound 24] | 19.5 ± 2.5 µM | >>10^4 nM | 3.27 ± 0.98 µM | A2a affinity (fold) (A2a-adenosine receptor; A2a versus A1): 6 fold |
| Nc1ncnc2c1ncn2[C@@H]1O[C@H](CO)[C@@H](O)[C@H]1O [Adenosine, adenosine] |  |  |  | Effect on PS liposome aggregation driven by Iα (Iα polypeptide): modest but evident biphasic effect |
| Iβ: CFTR polypeptide, positions 509 to 539, NH2-GVSYDEYRYRSVIKACQLEEDISKFAEKDNI-COOH |  |  |  | Aggregation of chromaffin granules [3]: essentially inactive |
| CCCn1c(=O)c2[nH]c(C3CCC(I)C3)nc2n(CCC)c1=O (centres unmarked) [Compound 10] | 0.058 µM | >>300 nM |  |  |
| Cn1c(=O)c2[nH]c(C3CCCCCC3)nc2n(C)c1=O [Compound 23] | 0.0659 ± 0.0145 µM | >>10^4 nM | 1.05 ± 0.19 µM | melting point: 223 to 225 °C |
| CCCn1c(=O)c2c(nc(C3CCCC3)n2C)n(CCC)c1=O [Compound 6, 1,3-dipropyl-7-methyl-8-cyclopentylxanthine] | 2.3 µM | 1000 nM | 11.4 ± 1.4 µM | Affinity for A1 receptor (A1-adenosine receptor): low affinity; Affinity for A2 receptor (A2a-adenosine receptor): low affinity; Chloride efflux stimulation (summary words) (CFPAC cells [2]): stimulate chloride efflux at μM or lesser concentrations; also recorded: substantial efflux activity at low concentration ranges; thresh (nM): minimum concentration required to detect an effect upon chloride efflux (CFPAC cells [2]): 30 nM; % control: chloride efflux at maximum impact relative to control (CFPAC cells [2]): 180 ± 40%; % control: chloride efflux at minimum detection relative to control (CFPAC cells [2]): 125 ± 30% |
| CCCn1c(=O)c2c(nc(C3CCCCC3)n2C)n(CCC)c1=O [Compound 19, 1,3-dipropyl-7-methyl-8-cyclohexylxanthine] | 2.7 µM | 5 nM | 9.24 ± 0.37 µM | Chloride efflux stimulation (summary words) (CFPAC cells [2]): stimulate chloride efflux at μM or lesser concentrations; also recorded: substantial efflux activity at low concentration ranges; thresh (nM): minimum concentration required to detect an effect upon chloride efflux (CFPAC cells [2]): 5 nM; % control: chloride efflux at maximum impact relative to control (CFPAC cells [2]): 170 ± 50%; % control: chloride efflux at minimum detection relative to control (CFPAC cells [2]): 170 ± 50% |
| CCCn1c(=O)c2[nH]c(C3C=CCC3)nc2n(CCC)c1=O (centres unmarked) [Compound 11] | 0.045 µM | >>300 nM | 0.64 ± 0.061 µM |  |
| C=CCn1c(=O)c2[nH]c(C3CCCCC3)nc2n(CC=C)c1=O [Compound 17] |  | 10^3 nM | 4.94 ± 0.68 µM | Ki (A1-adenosine receptor; read-out: Ki for A1 receptors (unit inferred)): ~0.07 µM; thresh (nM): minimum concentration required to detect an effect upon chloride efflux (CFPAC cells [2]): 30 nM; Efflux rate as compared to control (FIGS. 9-12) (CFPAC cells [2]): > 100% |
| CCn1c(C2CCCCC2)nc2c1c(=O)n(C)c(=O)n2C (hydrate or solvate) [Compound 15] |  |  |  | melting point: > 170 °C |
| Cn1c(=O)c2c(nc(C3CCCCC3)n2CC2CC2)n(C)c1=O (hydrate or solvate) [Compound 16] |  |  |  | melting point: > 120 °C |
